{"source": "patent US6215002A", "about": "“Pyrrolopyrrolone derivatives as inhibitors of neutrophil elastase” (priority 1996, dated 2001)", "note": "Counter-ions that a name gives are not always drawn.", "data": [{"target": "T1, human neutrophil elastase (Homo sapiens, UniProt P08246)", "T1 sequence (P08246 30-267)": "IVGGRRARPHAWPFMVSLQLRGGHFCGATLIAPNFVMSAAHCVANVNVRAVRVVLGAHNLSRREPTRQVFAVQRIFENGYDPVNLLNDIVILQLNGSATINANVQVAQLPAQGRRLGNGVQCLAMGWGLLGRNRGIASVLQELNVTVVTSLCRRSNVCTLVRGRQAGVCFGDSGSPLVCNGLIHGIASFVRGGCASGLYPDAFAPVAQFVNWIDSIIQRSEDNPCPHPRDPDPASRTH", "assay": "In vitro assay of human neutrophil elastase (HNE)", "assay_type": "biochemical", "conditions": "118 nM purified human neutrophil elastase, pH 8.6, 15 min incubation at 30° C., MeO-succinyl-alanyl-alanyl-prolyl-valyl-p-nitroanilide substrate; read-out: HNE IC50", "procedure,_shortened": "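Residual activity was taken as the 10 min rate of absorbance rise at 405 nm after adding 0.6 mM MeO-succinyl-AAPV-p-nitroanilide. Curve fitting of activity against concentration gave IC50.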", "units": {"IC50": "nM"}, "values": [{"compound": "CCC[C@H]1C(=O)N(S(C)(=O)=O)[C@H]2CCN(C(=O)c3cccnc3)[C@H]12", "note": "(relative stereo) [Example 247, rel-(3R,3aR,6aS)-1-Methanesulfonyl-3-propyl-4-(pyridine-3-carbonyl)-hexahydro-pyrrolo[3,2-b]pyrrol-2-one]", "IC50": 28}, {"compound": "CCC[C@H]1C(=O)N(S(=O)(=O)c2ccc3ccccc3c2)[C@H]2CCN(C(=O)CCCCCN3CCCCC3)[C@H]12", "note": "(relative stereo) [Example 40, rel-(3R,3aR,6aS)-1-(Naphthalene-2-sulfonyl)-4-(6-piperidin-1-yl-hexanoyl)-3-propyl-hexahydro-pyrrolo[3,2-b]pyrrol-2-one tartrate]", "IC50": 50}, {"compound": "CCCCOc1ccc(S(=O)(=O)N2C(=O)[C@H](CCC)[C@@H]3[C@@H]2CCN3C(=O)CCCCCN2CCCCC2)cc1", "note": "(relative stereo) [Example 204, rel-(3R,3aR,6aS)-1-(4-Butoxy-benzenesulfonyl)-4-(6-piperidin-1-yl-hexanoyl)-3-propyl-hexahydro-pyrrolo[3,2-b]pyrrol-2-one DL-tartrate]", "IC50": 98}, {"compound": "CCC[C@H]1C(=O)N(S(C)(=O)=O)[C@H]2CCN(C(=O)CCCCCN3CCCCC3)[C@H]12", "note": "(relative stereo) [Example 74, rel-(3R,3aR,6aS)-1-Methanesulfonyl-4-(6-piperidin-1-yl-hexanoyl)-3-propyl-hexahydro-pyrrolo[3,2-b]pyrrol-2-one hydrochloride]", "IC50": 55}, {"compound": "CCC[C@H]1C(=O)N(S(C)(=O)=O)[C@H]2CCN(S(=O)(=O)c3cn(C)cn3)[C@H]12", "note": "(relative stereo) [Example 7, rel-(3R,3aR,6aS)-1-Methanesulfonyl-4-(1-methyl-1H-imidazole-4-sulfonyl)-3-propyl-hexahydro-pyrrolo[3,2-b]pyrrol-2-one]", "IC50": 134}, {"compound": "CCCCOc1ccc(S(=O)(=O)N2CC[C@H]3[C@H]2[C@@H](CCC)C(=O)N3S(C)(=O)=O)cc1", "note": "(relative stereo) [Example 214, rel-(3R,3aR,6aS)-4-(4-Butoxy-benzenesulfonyl)-1-methanesulfonyl-3-propyl-hexahydro-pyrrolo[3,2-b]pyrrol-2-one]", "IC50": 464}, {"compound": "CCC[C@H]1C(=O)N(S(=O)(=O)c2ccccn2)[C@H]2CCN(C(=O)CCN3CCCCC3)[C@H]12", "note": "(relative stereo) [Example 171, rel-(3R,3aR,6aS)-4-(3-Piperidin-1-yl-propionyl)-3-propyl-1-(pyridine-2-sulfonyl)-hexahydro-pyrrolo[3,2-b]pyrrol-2-one hydrochloride]", "IC50": 39}, {"compound": "CCC[C@H]1C(=O)N(S(C)(=O)=O)[C@H]2CCN(S(=O)(=O)c3ccc(N4CCCC4=O)cc3)[C@H]12", "note": "(relative stereo) [Example 212, rel-(3R,3aR,6aS)-1-Methanesulfonyl-4-[4-(2-oxo-pyrrolidin-1yl)-benzenesufonyl]-3-propyl-hexahydro-pyrrolo[3,2-b]pyrrol-2-one]", "IC50": 30}, {"compound": "CCC[C@H]1C(=O)N(S(C)(=O)=O)[C@H]2CCN(S(=O)(=O)c3ccc(Cl)cc3)[C@H]12", "note": "(relative stereo) [Example 215, rel-(3R,3aR,6aS)-4-(4-Chloro-benzenesulfonyl)-1-methanesulfonyl-3-propyl-hexahydro-pyrrolo[3,2-b]pyrrol-2-one]", "IC50": 28}, {"compound": "CCC[C@H]1C(=O)N(S(=O)(=O)c2cccc3ccccc23)[C@H]2CCN(C(=O)C3CCN(C(=O)OC(C)(C)C)CC3)[C@H]12", "note": "(relative stereo) [Example 16, rel-(3aS,6R,6aR)-4-[4-(Naphthalene-1-sulfonyl)-5-oxo-6-propyl-hexahydro-pyrrolo[3,2-b]pyrrole-1-carbonyl-carbonyl]-piperidine-1-carboxylic acid tert-butyl]", "IC50": 267}, {"compound": "CS(=O)(=O)N1C(=O)[C@H](C2CC2)[C@@H]2[C@@H]1CCN2C(=O)/C=C/CN1CCCCC1", "note": "(relative stereo) [Example 257, rel-(3R,3aR,6aS)-3-Cyclopropyl-1-methanesulfonyl-4-(4-piperidin-1-yl-but-2E-enoyl)-hexahydro-pyrrolo[3,2-b]pyrrol-2-one hydrochloride]", "IC50": 62}, {"compound": "CCC[C@H]1C(=O)N(S(C)(=O)=O)[C@H]2CCN(C(=O)/C=C/c3ccc(NC(C)=O)cc3)[C@H]12", "note": "(relative stereo) [Example 134, rel-N-{4-[3-(4-Methanesulfonyl-5-oxo-6R-propyl-hexahydro-(3aS,6aR)-pyrrolo[3,2-b]pyrrol-1-yl)-3-oxo-(E)-propenyl]-phenyl}acetamide]", "IC50": 23}, {"compound": "CCC[C@H]1C(=O)N(S(=O)(=O)c2cccs2)[C@H]2CCN(C(=O)CCCCCN3CCCCC3)[C@H]12", "note": "(relative stereo) [Example 169, rel-(3R,3aR,6aS)-4-(6-Piperidin-1-yl-hexanoyl)-3-propyl-1-(thiophene-2-sulfonyl)-hexahydro-pyrrolo[3,2-b]pyrrol-2-one DL-tartrate]", "IC50": 29}, {"compound": "CCC[C@H]1C(=O)N(S(C)(=O)=O)[C@H]2CCN(S(=O)(=O)c3ccccc3N)[C@H]12", "note": "(relative stereo) [Example 236, rel-(3R,3aR,6aS)-4-(2-Amino-benzenesulfonyl)-1-methanesulfonyl-3-propyl-hexahydro-pyrrolo[3,2-b]pyrrol-2-one]", "IC50": 18}, {"compound": "CCC[C@H]1C(=O)N(S(=O)(=O)c2cccc3nsnc23)[C@H]2CCN(C(=O)CCN3CCCCC3)[C@H]12", "note": "(relative stereo) [Example 168, rel-(3R,3aR,6aS)-1-(Benzo[1,2,5]thiadiazole-4-sulfonyl)-4-(3-piperidin-1-yl-propionyl)-3-propyl-hexahydro-pyrrolo[3,2-b]pyrrol-2-one DL-tartrate]", "IC50": 208}, {"compound": "C=CC[C@H]1C(=O)N(S(=O)(=O)c2ccccc2)[C@H]2CCN(C(=O)OCc3ccccc3)[C@H]12", "note": "(relative stereo) [Example 45, rel-(3aS,6R,6aR)-6-Allyl-4-benzenesulfonyl-5-oxo-hexahydro-pyrrolo[3,2-b]pyrrole-1-carboxylic acid benzyl ester]", "IC50": 531}, {"compound": "CCC[C@H]1C(=O)N(S(=O)(=O)c2ccc3ccccc3c2)[C@H]2CCN(C(=O)CCCN3CCCCC3)[C@H]12", "note": "(relative stereo) [Example 39, rel-(3R,3aR,6aS)-1-(Naphthalene-2-sulfonyl)-4-(4-piperidin-l-yl-butyryl)-3-propyl-hexahydro-pyrrolo[3,2-b]pyrrol-2-one tartrate]", "IC50": 189}, {"compound": "CCC[C@H]1C(=O)N(S(C)(=O)=O)[C@H]2CCN(S(=O)(=O)c3cccc(C(F)(F)F)c3)[C@H]12", "note": "(relative stereo) [Example 223, rel-(3R,3aR,6aS)-1-Methanesulfonyl-3-propyl-4-(3-trifluoromethyl-benzenesulfonyl)-hexahydro-pyrrolo[3,2-b]pyrrol-2-one]", "IC50": 62}, {"compound": "CC(C)[C@H]1C(=O)N(S(C)(=O)=O)[C@H]2CCN(S(=O)(=O)c3ccc(N)cc3)[C@H]12", "note": "(relative stereo) [Example 237, rel-(3R,3aR,6aS)-4-(4-Amino-benzenesulfonyl)-3-isopropyl-1-methanesulfonyl-hexahydro-pyrrolo[3,2-b]pyrrol-2-one]", "IC50": 29}, {"compound": "CCC[C@H]1C(=O)N(S(=O)(=O)c2ccc3ccccc3c2)[C@H]2CCN(S(=O)(=O)CCCN3CCOCC3)[C@H]12", "note": "(relative stereo) [Example 12, rel-(3R,3aR,6aS)-4-(3-Morpholin-4-yl-propane-1-sulfonyl)-1-(naphthalene-2-sulfonyl)-3-propyl-hexahydro-pyrrolo[3,2-b]pyrrol-2-one]", "IC50": 60}, {"compound": "C=CC[C@H]1C(=O)N(S(=O)(=O)CCc2ccccc2)[C@H]2CCN(C(=O)OCc3ccccc3)[C@H]12", "note": "(relative stereo) [Example 43, rel-(3aS,6R,6aR)-6-Allyl-5-oxo-4-(2-phenyl-ethanesulfonyl)-hexahydro-pyrrolo[3,2-b]pyrrole-1-carboxylic acid benzyl ester]", "IC50": 408}, {"compound": "CC(C)[C@H]1C(=O)N(S(C)(=O)=O)[C@H]2CCN(S(=O)(=O)c3ccc(CN4CCCCCC4)cc3)[C@H]12", "note": "(relative stereo) [Example 199, rel-(3R,3aR,6aS)-4-(4-Azepin-1-ylmethyl-benzenesulfonyl)-3-isopropyl-1-methanesulfonyl-hexahydro-pyrrolo[3,2-b]pyrrol-2-one hydrochloride]", "IC50": 99}, {"compound": "CCC[C@H]1C(=O)N(S(C)(=O)=O)[C@H]2CCN(S(=O)(=O)c3ccc(C(=O)O)cc3)[C@@H]12", "note": "(relative stereo) [Example 122, rel-(3aS,6R,6aS)-4-(4-Methanesulfonyl-5-oxo-6-propyl-hexahydro-pyrrolo[3,2-b]pyrrole-1-sulfonyl)-benzoic acid]", "IC50": 4}, {"compound": "CCC[C@H]1C(=O)N(S(C)(=O)=O)[C@H]2CCN(C(=O)CCCCCCCCCN(C)c3ccccc3)[C@H]12", "note": "(relative stereo) [Example 68, rel-(3R,3aR,6aS)-1-Methanesulfonyl-4-[10-methyl-phenyl-amino)decanoyl]-3-propyl-hexahydro-pyrrolo[3,2-b]pyrrol-2-one hydrochloride]", "IC50": 73}, {"compound": "CCCCS(=O)(=O)N1C(=O)[C@H](CCC)[C@@H]2[C@@H]1CCN2C(=O)CCN1CCCCC1", "note": "(relative stereo) [Example 163, rel-(3R,3aR,6aS)-1-(Butane-1-sulfonyl)-4-(3-piperidin-1-yl-propionyl)-3-propyl-hexahydro-pyrrolo[3,2-b]pyrrol-2-one DL-tartrate]", "IC50": 103}, {"compound": "CC(C)[C@H]1C(=O)N(S(C)(=O)=O)[C@H]2CCN(S(=O)(=O)c3ccc(CN4CCCCC4)cc3)[C@H]12", "note": "(relative stereo) [Example 198, rel-(3R,3aR,6aS)-3-Isopropyl-1-methanesulfonyl-(4-piperidin-1-ylmethyl-benzenesulfonyl)-hexahydro-pyrrolo[3,2-b]pyrrol-2-one hydrochloride]", "IC50": 127}]}]}
